Among the data in PubChem BioAssay (NCI) are GI50 and TGI values, retold here.

Experiment in all cases: growth of human tumour cells (NCI), 48 h
The test system of experiment [1] is SNB-75 CNS.
Experiment [2] has as its system HOP-62 NSCLC.
Experiment [3] relates to TK-10 renal.
Experiment [4] deals with NCI-H460 lung.
Experiment [5] has as its system MOLT-4 leukemia.
Experiment [6] deals with DU-145 prostate.
Experiment [7] relates to RXF 393 renal.
Experiment [8] has as its system NCI-H23 lung.
Experiment [9] concerns SK-MEL-5 melanoma.
Experiment [10] has as its system NCI-H226 lung.

SMILES strings stand for the structures.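 96-well plates; 48 h exposure; 5 concentrations. Endpoints by linear interpolation between flanking doses. Not reached: highest tested concentration assigned. GI50: concentration for 50% inhibition of growth. Definition used: TGI = concentration required for complete inhibition of growth.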 A value given as a limit tells only on which side of the number the result lay.

In the case of `COc1ccc2c(c1)c(=O)oc1cc(OC/C(C)=N\O)ccc12`, the GI50 in [1] is 14.9 µM; in experiment [2] it was 28.7 µM; in experiment [3], 44.8 µM; in [4], > 100 µM; in [5] it was > 100 µM; in experiment [6] it was > 100 µM. Further, the GI50 in experiment [7] is 56.6 µM; in [8] it was > 100 µM; in experiment [9], > 100 µM; in experiment [10], > 100 µM. Besides, the TGI in [1] is 42.9 µM; in [2], > 100 µM; in experiment [3], > 100 µM; in experiment [4], > 100 µM; in experiment [5] it was > 100 µM; in experiment [6], > 100 µM. Also, the TGI in [7], in experiment [8], in experiment [9] and in experiment [10] was > 100 µM throughout.
